Tests used:
[1] = moisture vapour sorption (adsorption/desorption isotherm); format: physicochemical
Method: These moisture vapour sorption studies show formation of a dihydrate above 80% relative humidity (RH) at 25° C. Hysteresis indicative of hydrate formation is seen to occur, with desorption occurring below ca. 60% RH.

[2] = aqueous solubility; format: physicochemical
Description: This conversion is slow due to the low aqueous solubility of Compound I in relation to the large excess of solid compound slurried.

SMILES: CCn1ncnc1COc1nn2c(-c3ccccc3F)nnc2cc1C(C)(C)C [Compound I polymorph A, 7-(1,1-Dimethylethyl)-6-(2-ethyl-2H-1,2,4-triazol-3-ylmethoxy)-3-(2-fluorophenyl)-1,2,4-triazolo[4,3-b]pyridazine]
- relative humidity of dihydrate formation ([1]; 25° C., adsorption): above 80 % relative humidity (RH)
- relative humidity of desorption (hysteresis) ([1]; 25° C., desorption): < 60 % RH

SMILES: CCn1ncnc1COc1nn2c(-c3ccccc3F)nnc2cc1C(C)(C)C [dihydrate of polymorph A, 7-(1,1-Dimethylethyl)-6-(2-ethyl-2H-1,2,4-triazol-3-ylmethoxy)-3-(2-fluorophenyl)-1,2,4-triazolo[4,3-b]pyridazine]
- stability of the dihydrate ([1]; humidity): stable, but only at elevated humidities

SMILES: CCn1ncnc1COc1nn2c(-c3ccccc3F)nnc2cc1C(C)(C)C [Compound I, 7-(1,1-Dimethylethyl)-6-(2-ethyl-2H-1,2,4-triazol-3-ylmethoxy)-3-(2-fluorophenyl)-1,2,4-triazolo[4,3-b]pyridazine]
- aqueous solubility [2]: low

From patent publication US6630471B1, “Substituted triazolo-pyridazine derivative, pharmaceutical compositions made therefrom” (Merck Sharp & Dohme Ltd., priority 1998, dated 2003)
